Target: I-Ak (Mus musculus, UniProt P01910+P06343)
Test: Percent of I-Ak occupied by each eluted self-peptide
Conditions: I-Ak from thymus (cortical plus medullary epithelium) of C3H/HeJ mice; Table 1

Chain of I-Ak (P01910 whole entry, looked up): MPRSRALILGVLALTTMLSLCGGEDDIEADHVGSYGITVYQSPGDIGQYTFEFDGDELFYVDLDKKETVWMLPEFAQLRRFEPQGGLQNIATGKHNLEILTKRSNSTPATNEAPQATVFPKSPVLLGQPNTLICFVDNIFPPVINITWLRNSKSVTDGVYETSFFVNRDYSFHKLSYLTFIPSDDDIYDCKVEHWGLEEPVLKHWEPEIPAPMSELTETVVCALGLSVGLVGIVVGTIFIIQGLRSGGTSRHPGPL
Chain of I-Ak (P06343 whole entry, looked up): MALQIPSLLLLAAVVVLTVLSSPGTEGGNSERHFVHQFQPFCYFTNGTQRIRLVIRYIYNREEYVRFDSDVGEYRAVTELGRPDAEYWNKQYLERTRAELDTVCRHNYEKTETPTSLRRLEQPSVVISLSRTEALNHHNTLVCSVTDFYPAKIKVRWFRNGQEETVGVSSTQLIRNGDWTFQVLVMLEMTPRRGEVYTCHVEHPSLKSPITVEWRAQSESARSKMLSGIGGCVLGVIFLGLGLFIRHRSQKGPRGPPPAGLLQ

Row | Percent of MHC occupied in Thymus [%] | Substance
1 | 0.3 | a vvKKGTD_FQLNQLE [Transferrin 100-]
2 | 0.2 | e yiLYNKGIMGEdSYPY [Cathepsin H 77-]
3 | 0.2 | k kGTD_FQLNQLEGKKG [Transferrin 103-]
4 | < 0.1 | n serHFV_HQFQPFcyF [A~ 3-]
5 | < 0.1 | r sYLD_AwVcEQLAT [Fce Receptor 11 298-]
6 | 0.2 | xPL_ALQFAELPVNKG
7 | < 0.1 | xP_IDDGGIEA
8 | < 0.1 | xQLGA_QNEMLxPV

— article PMC2191300 (The Journal of Experimental Medicine, 1993)
